Reference: patent publication US20090143361A1, “Pyrido[3,2-E]Pyrazines, Process For Preparing The Same, And Their Use As Inhibitors Of Phosphodiesterase 10” (ELBION GMBH, priority 2007, published 2009)

Molecular target: PDE10 from pig striatum (Sus scrofa, UniProt A0A287B941)
Experiment: Inhibition of PDE10 from pig striatum ([3H]-cAMP SPA)
Assay type: biochemical
Conditions: Table 7; read-out: PDE10 pig IC50
Protocol: Phosphodiesterase isoenzyme 10 (PDE10) activity was determined in preparations of human recombinant PDE10A and PDE10 from pig striatum, respectively.
Striatum from male hybrid pigs (150 kg) were collected and frozen at −70° C.
At the day of preparation 0.5 g striatum was homogenised in 10 ml 50 mM Tris/Mg-buffer at 4° C. and centrifuged for one hour at 100000 g. The supernatant was removed and the pellet was resuspended in the same buffer, but containing 1% Triton and incubated for 45 min at 4° C. The membrane fraction was applied onto a 5 ml Hi Trap™ QHP column at the Akta-FPLC. After washing the column the bound PDE protein was eluted with an increasing sodium chloride gradient (O mM-500 mM sodium chloride) in 50 mM Tris/Mg-buffer at 4° C. in the presence of 1% Triton. […] The fractions with PDE10-activity were pooled and frozen in aliquots until use at −20° C.
(§1) PDE10 activity was determined in a one step procedure in microtiterplates. […] Nonspecific activity was tested without the enzyme. The reaction was initiated by addition of the substrate solution and was carried out at 37° C. for 30 minutes. Enzymatic activity was stopped by addition of 25 μl YSi-SPA-beads (Amersham-Pharmacia). One hour later the mixture was measured in a liquid scintillation counter for microtiterplates (Microbeta Trilux). To pipette the incubation mixture a robot Biomek (Fa. Beckman) is used. […] For determination of IC50 values the Hill-plot, 2-parameter-model, was used.
The phosphodiesterase isoenzyme 10 (PDE10) activity was determined in preparations of rat, pig and guinea pig striatum respectively. Striatum from male Wistar rats (180-200 g), male hybrid pigs (150 kg) and male guinea pigs (CRL (HA), 500 g) respectively were collected and frozen at −70° C.
At the day of preparation 0.5 g striatum was homogenized in 10 ml 50 mM Tris/Mg-buffer at 4° C. and centrifuged for one hour at 100000 g. The supernatant is called the cytosolic fraction and was removed and stored on ice. The pellet was resuspended in the same buffer, but containing 1% Triton and incubated for 45 min at 4° C. Both fractions were independently applied onto a 5 ml Hi Trap™ QHP column at the Akta-FPLC. After washing the columns the bound PDE protein was eluted with an increasing sodium chloride gradient (0 mM-500 mM sodium chloride) in 50 mM Tris/Mg-buffer at 4° C. for the cytosolic fraction and in the presence of 1% Triton for the membrane fraction. […] The fractions with PDE10-activity were pooled and frozen in aliquots until use at −20° C.
as §1, with “YSi-SPA beads” for “YSi-SPA-beads”

SMILES | IC50 [nM]
Cc1nc(CCC(F)(F)F)n2c1c(Cl)nc1ccc(OCC(F)(F)F)nc12 [Example 1, 6-Chloro-7-methyl-2-(2,2,2-trifluoroethoxy)-9-(3,3,3-trifluoropropyl)imidazo[1,5-a]pyrido[3,2-e]pyrazine] | 10 to 100
CCCc1nc(C)c2c(Cl)nc3ccc(OCC)nc3n12 [Example 2, 6-Chloro-2-ethoxy-7-methyl-9-propylimidazo[1,5-a]pyrido[3,2-e]pyrazine] | < 10
CCCc1nc(C)c2c(C)nc3ccc(OCC)nc3n12 [Example 3, 2-Ethoxy-6,7-dimethyl-9-propylimidazo[1,5-a]pyrido[3,2-e]pyrazine] | 10 to 100
CCOc1ccc2nc(C)c3c(C)nc(-c4ccccc4Cl)n3c2n1 [Example 4, 9-(2-Chlorophenyl)-2-ethoxy-6,7-dimethylimidazo[1,5-a]pyrido[3,2-e]pyrazine] | < 10
COc1ccc2nc(C)c3c(C)nc(-c4cccc(F)c4)n3c2n1 [Example 5, 9-(3-Fluorophenyl)-2-methoxy-6,7-dimethylimidazo[1,5-a]pyrido[3,2-e]pyrazine] | 10 to 100
COc1ccc2nc(C)c3c(C)nc(-c4cc(Cl)cc(Cl)c4)n3c2n1 [Example 6, 9-(3,5-Dichlorophenyl)-2-methoxy-6,7-dimethylimidazo[1,5-a]pyrido[3,2-e]pyrazine] | 10 to 100
COc1ccc2nc(C)c3c(C)nc(-c4ccc(Cl)c(Cl)c4)n3c2n1 [Example 7, 9-(3,4-Dichlorophenyl)-2-methoxy-6,7-dimethylimidazo[1,5-a]pyrido[3,2-e]pyrazine] | 10 to 100
COc1ccc2nc(C)c3c(C)nc(-c4ccc(F)cc4F)n3c2n1 [Example 8, 9-(2,4-Difluorophenyl)-2-methoxy-6,7-dimethylimidazo[1,5-a]pyrido[3,2-e]pyrazine] | 10 to 100
COc1ccc2nc(C)c3c(C)nc(-c4ccc(F)nc4)n3c2n1 [Example 9, 9-(6-Fluoropyridin-3-yl)-2-methoxy-6,7-dimethylimidazo[1,5-a]pyrido[3,2-e]pyrazine] | 10 to 100
COc1ccc2nc(C)c3c(C)nc(-c4cccnc4)n3c2n1 [Example 10, 2-Methoxy-6,7-dimethyl-9-pyridin-3-ylimidazo[1,5-a]pyrido[3,2-e]pyrazine] | 10 to 100
COc1ccc2nc(C)c3c(C)nc(-c4ccncc4)n3c2n1 [Example 11, 2-Methoxy-6,7-dimethyl-9-pyridin-4-ylimidazo[1,5-a]pyrido[3,2-e]pyrazine] | 10 to 100
COc1ccc2nc(C)c3c(C)nc(-c4ccc(C)cc4Cl)n3c2n1 [Example 12, 9-(2-Chloro-4-methylphenyl)-2-methoxy-6,7-dimethylimidazo[1,5-a]pyrido[3,2-e]pyrazine] | < 10
COc1ccc2nc(C)c3c(C)nc(-c4ccc(Cl)cc4C)n3c2n1 [Example 13, 9-(4-Chloro-2-methylphenyl)-2-methoxy-6,7-dimethylimidazo[1,5-a]pyrido[3,2-e]pyrazine] | < 10
COc1ccc2nc(C)c3c(C)nc(-c4ccc(C)cc4F)n3c2n1 [Example 14, 9-(2-Fluoro-4-methylphenyl)-2-methoxy-6,7-dimethylimidazo[1,5-a]pyrido[3,2-e]pyrazine] | < 10
COc1ccc2nc(C)c3c(C)nc(-c4cccc(OC)c4F)n3c2n1 [Example 15, 9-(2-Fluoro-3-methoxyphenyl)-2-methoxy-6,7-dimethylimidazo[1,5-a]pyrido[3,2-e]pyrazine] | 10 to 100
COc1ccc(-c2nc(C)c3c(C)nc4ccc(OC)nc4n23)c(Cl)c1 [Example 18, 9-(2-Chloro-4-methoxyphenyl)-2-methoxy-6,7-dimethylimidazo[1,5-a]pyrido[3,2-e]pyrazine] | < 10
COc1ccc2nc(C)c3c(C)nc(-c4cc(F)ccc4Cl)n3c2n1 [Example 22, 9-(2-Chloro-5-fluorophenyl)-2-methoxy-6,7-dimethylimidazo[1,5-a]pyrido[3,2-e]pyrazine] | < 10
COc1ccc2nc(C)c3c(C)nc(-c4cncnc4)n3c2n1 [Example 27, 2-Methoxy-6,7-dimethyl-9-pyrimidin-5-ylimidazo[1,5-a]pyrido[3,2-e]pyrazine] | < 10
